Assays:
[1] = molecular target: recombinant ROCK2 (amino acids 1-552) (Homo sapiens (Human), UniProt O75116); test: Z'-lyte kinase assay, ROCK2; format: biochemical
Description: Determination of compounds ROCK inhibitory activity in vitro (Z'lyte assay): recombinant ROCK1 (amino acids 1-535) and ROCK2 (amino acids 1-552) proteins were purchased from ThermoFisher Scientific. Compounds activities were measured by Z'-lyte kinase kit (ThermoFisher Scientific) and IC50s were calculated.
Compounds activities were measured by Z'-lyte kinase kit (ThermoFisher Scientific). […] IC50s were calculated using the GraphPad Prism software with kinase activities data that were collected from 9 points serial dilution of compounds treatment. The ROCK inhibition in A7R5 cells and NIH3T3 (Acta2-Luc) cells was performed as described above.
The percent inhibition rate was calculated by normalizing the kinase activity value obtained with compound treatment against DMSO control value and then applied to the equation, […]. IC50's were calculated using the nonlinear regression curve fit function of the GraphPad Prism software with kinase activities data measured with 9 points 2-fold serial dilution of compounds treatment.

[2] = system: ACTA2-promoter-driven-luciferase in NIH3T3 cells; test: NIH3T3 Acta2-promoter driven-luciferase assay; format: cell-based; details: Mus musculus, plus TGFβ1, 24 hr, read-out: NIH3T3, Acta2-luc, IC50
Description: NIH3T3 cells Acta2-promoter driven-luciferase assay: A NIH3T3 cell line stably expressing a luciferase reporter driven by the human ACTA2 gene promoter (−1000-1 bp) was established (NIH3T3-Acta2-luciferase). The cells were plated to confluence and treated with the test compounds plus TGFβ1 for 24 hr. Cells were then lysed and luciferase activity was measured using the LightSwitch luciferase kit from Active Motif.
ROCK inhibitors can be effectively rank ordered by ACTA2-promoter-driven-luciferase reporter cell assay. NIH3T3 cells stably expressing ACTA2-promoter-driven-luciferase were applied to measure ROCK compounds functional IC50's in cells. Cells were plated in 96 well plates to confluence and treated with 9 points serial dilution of compounds in combination with TGFβ1 for 24 hr. Luciferase activities were measured and compound's IC50's were calculated using the nonlinear regression curve fit function of the GraphPad Prism software. Compounds of the invention gave in cell IC50's under 200 nM, see FIG. 1c.

[3] = system: ppMlc (T18/S19) levels in A7R5 cells; test: A7R5 in-cell ELISA assay (ppMlc); format: cell-based, rat; details: Rattus norvegicus, A7R5, A7R5 cells, Table 2; read-out: pMLC IC50 (nM) A7R5
Description: Determination of compounds ROCK inhibitory activity in A7R5 cells: rat aortic smooth muscle cell line A7R5 cells were maintained and treated in DMEM medium with 10% of fetal bovine serum. Cells were seeded with density of 5,000 cells/well in 96-well plates for 24 hours and subsequently treated 90 min with testing compounds. Cells were then fixed and processed according to the In-Cell ELISA Colorimetric Detection Kit manual (Thermo Scientific).
A7R5 cells were treated with 9 points 2 fold serial dilution of compounds and ppMlc (T18/S19) levels were determined in order to calculate the cellular IC50s of the compounds.
An A7R5 in-cell ELISA assay was performed to determine ROCK inhibition of test articles. A7R5 cells were treated with 9 points 2-fold serial dilution of compounds and ppMlc (T18/S19) levels were determined to calculate cellular IC50 values of the compounds. […] A7R5 cells were treated with 9 points 2-fold serial dilution of compounds and ppMlc (T18/S19) levels were determined to calculate cellular IC50 values of the compounds using the nonlinear regression curve fit function of the GraphPad Prism software.

Sequence of recombinant ROCK2 (amino acids 1-552) (O75116 1-552): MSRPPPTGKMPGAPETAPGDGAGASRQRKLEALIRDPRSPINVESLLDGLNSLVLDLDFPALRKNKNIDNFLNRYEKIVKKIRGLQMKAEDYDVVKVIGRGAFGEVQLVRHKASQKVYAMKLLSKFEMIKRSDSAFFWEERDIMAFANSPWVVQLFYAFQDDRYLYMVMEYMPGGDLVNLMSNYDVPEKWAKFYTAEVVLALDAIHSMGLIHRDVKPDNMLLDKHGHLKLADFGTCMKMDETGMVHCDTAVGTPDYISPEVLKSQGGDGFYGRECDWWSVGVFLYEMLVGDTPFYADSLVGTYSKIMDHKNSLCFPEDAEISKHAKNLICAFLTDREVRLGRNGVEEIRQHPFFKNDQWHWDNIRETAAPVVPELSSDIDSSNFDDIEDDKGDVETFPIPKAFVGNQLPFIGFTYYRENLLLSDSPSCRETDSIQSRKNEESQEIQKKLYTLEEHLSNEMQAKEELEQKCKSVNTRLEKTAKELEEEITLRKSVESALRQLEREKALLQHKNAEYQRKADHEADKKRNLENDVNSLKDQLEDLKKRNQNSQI

Row | Structure (SMILES) | IC50 [1] [nM] | IC50 [2] [nM] | IC50 [3] [nM]
1 | COc1cccc(C(NCCN2CCCC2)C(=O)Nc2ccc(-c3cn[nH]c3)cc2)c1 (stereo not drawn) [Example 52, N-(4-(1H-pyrazol-4-yl)phenyl)-2-(3-methoxyphenyl)-2-((2-(pyrrolidin-1-yl)ethyl)amino)acetamide] | 17 | 675 | 106
2 | CNC(=O)c1cccc(C(NC)C(=O)Nc2ccc(-c3cn[nH]c3)cc2)c1 (stereo not drawn) [Example 67, 3-(2-((4-(1H-pyrazol-4-yl)phenyl)amino)-1-(methylamino)-2-oxoethyl)-N-methylbenzamide] | 1.9 | 296 | 269
3 | COCCNC(C(=O)Nc1ccc(-c2cn[nH]c2)c(OC)c1)c1cccc(OC)c1 (stereo not drawn) [Example 56, N-(3-methoxy-4-(1H-pyrazol-4-yl)phenyl)-2-((2-methoxyethyl)amino)-2-(3-methoxyphenyl)acetamide] | 5.3 | 78 | 115
4 | CN[C@@H](C(=O)Nc1cc(F)c(-c2cn[nH]c2)cc1OCCN(C)C)c1cccc(OC)c1 [Example 72, (R)—N-(2-(2-(dimethylamino)ethoxy)-5-fluoro-4-(1H-pyrazol-4-yl)phenyl)-2-(3-methoxyphenyl)-2-(methylamino)acetamide] | 46 | 984 | 382
5 | CNC(=O)c1ccc(C(NC)C(=O)Nc2ccc(-c3cn[nH]c3)cc2)cc1 (stereo not drawn) [Example 69, 4-(2-((4-(1H-pyrazol-4-yl)phenyl)amino)-1-(methylamino)-2-oxoethyl)-N-methylbenzamide] | 400 | > 5000 | > 5000
6 | CNCCNC(C(=O)Nc1ccc(-c2cn[nH]c2)cc1)c1cccc(OC)c1 (stereo not drawn) [Example 26, N-(4-(1H-pyrazol-4-yl)phenyl)-2-(3-methoxyphenyl)-2-((2-(methylamino)ethyl)amino)acetamide] | 5.3 | 251 | 152
7 | CNC(C(=O)Nc1cc(F)c(-c2cn[nH]c2)cc1OCCN(C)C)c1cccc(OC)c1 (stereo not drawn) [Example 71, N-(2-(2-(dimethylamino)ethoxy)-5-fluoro-4-(1H-pyrazol-4-yl)phenyl)-2-(3-methoxyphenyl)-2-(methylamino)acetamide] | 3 | 301 | 57
8 | CNC(C(=O)Nc1ccc(-c2cn[nH]c2)cc1)c1cccc(C(=O)O)c1 (stereo not drawn) [Example 32, 3-(2-((4-(1H-pyrazol-4-yl)phenyl)amino)-1-(methylamino)-2-oxoethyl)benzoic acid] | 31 | > 5000 | > 5000
9 | CNC(C(=O)Nc1ccc(-c2cn[nH]c2)cc1)c1ccc2nc(C)sc2c1 (stereo not drawn) [Example 27, N-(4-(1H-pyrazol-4-yl)phenyl)-2-(methylamino)-2-(2-methylbenzo[d]thiazol-6-yl)acetamide] | 65 | 699 | 1680
10 | CN[C@@H](C(=O)Nc1ccc(-c2cn[nH]c2)cc1)c1cccc(OC)c1 [Example 3, (R)—N-(4-(1H-pyrazol-4-yl)phenyl)-2-(3-methoxyphenyl)-2-(methylamino)acetamide] | 12 | 157 | 222
11 | COc1cccc(C(NCCN(C)C)C(=O)Nc2ccc(-c3cn[nH]c3)cc2)c1 (stereo not drawn) [Example 57, N-(4-(1H-pyrazol-4-yl)phenyl)-2-((2-(dimethylamino)ethyl)amino)-2-(3-methoxyphenyl)acetamide] | 10 | 175 | 74
12 | CN[C@H](C(=O)Nc1cc(F)c(-c2cn[nH]c2)cc1OCCN(C)C)c1cccc(OC)c1 [Example 73, (S)—N-(2-(2-(dimethylamino)ethoxy)-5-fluoro-4-(1H-pyrazol-4-yl)phenyl)-2-(3-methoxyphenyl)-2-(methylamino)acetamide] | 1.6 | 122 | 15
13 | CNC(=O)CNC(C(=O)Nc1ccc(-c2cn[nH]c2)cc1)c1cccc(OC)c1 (stereo not drawn) [Example 44, N-(4-(1H-pyrazol-4-yl)phenyl)-2-(3-methoxyphenyl)-2-((2-(methylamino)-2-oxoethyl)amino)acetamide] | 42 | 2230 | 2020
14 | CCNC(C(=O)Nc1ccc(-c2cn[nH]c2)cc1)c1ccc(Cl)cc1 (stereo not drawn) [Example 22, N-(4-(1H-pyrazol-4-yl)phenyl)-2-(4-chlorophenyl)-2-(ethylamino)acetamide] | 8.9 | 155 | 169
15 | COc1cccc(C(NCc2cn[nH]c2)C(=O)Nc2ccc(-c3cn[nH]c3)cc2)c1 (stereo not drawn) [Example 45, 2-(((1H-pyrazol-4-yl)methyl)amino)-N-(4-(1H-pyrazol-4-yl)phenyl)-2-(3-methoxyphenyl)acetamide] | 53 | 1460 | 1360
16 | COc1cccc(C(NCC(=O)N(C)C)C(=O)Nc2ccc(-c3cn[nH]c3)cc2)c1 (stereo not drawn) [Example 39, N-(4-(1H-pyrazol-4-yl)phenyl)-2-((2-(dimethylamino)-2-oxoethyl)amino)-2-(3-methoxyphenyl)acetamide] | 16 | > 5000 | 1670
17 | COc1cccc(C(NCCN2CCOCC2)C(=O)Nc2ccc(-c3cn[nH]c3)cc2)c1 (stereo not drawn) [Example 50, N-(4-(1H-pyrazol-4-yl)phenyl)-2-(3-methoxyphenyl)-2-((2-morpholinoethyl)amino)acetamide] | 2.4 | 92 | 97
18 | CCNC(C(=O)Nc1ccc(-c2cn[nH]c2)cc1)c1ccc(OC)cc1 (stereo not drawn) [Example 10, N-(4-(1H-pyrazol-4-yl)phenyl)-2-(ethylamino)-2-(4-methoxyphenyl)acetamide] | 21 | 1280 | 255
19 | CCNC(C(=O)Nc1ccc(-c2cn[nH]c2)cc1)c1cccc(OC)c1 (stereo not drawn) [Example 13, N-(4-(1H-pyrazol-4-yl)phenyl)-2-(ethylamino)-2-(3-methoxyphenyl)acetamide] | 6.3 | 1570 | 425
20 | CNC(C(=O)Nc1ccc(-c2cn[nH]c2)cc1)c1ccc(C(=O)OC)cc1 (stereo not drawn) [Example 34, methyl 4-(2-((4-(1H-pyrazol-4-yl)phenyl)amino)-1-(methylamino)-2-oxoethyl)benzoate] | 310 | > 5000 | > 5000
21 | COCCN(C)C(C(=O)Nc1ccc(-c2cn[nH]c2)cc1)c1cccc(OC)c1 (stereo not drawn) [Example 47, N-(4-(1H-pyrazol-4-yl)phenyl)-2-((2-methoxyethyl)(methyl)amino)-2-(3-methoxyphenyl)acetamide] | 30 | 465 | 321
22 | CNC(C(=O)Nc1ccc(-c2cn[nH]c2)cc1)c1ccc(C(=O)O)cc1 (stereo not drawn) [Example 68, 4-(2-((4-(1H-pyrazol-4-yl)phenyl)amino)-1-(methylamino)-2-oxoethyl)benzoic acid] | 451 | > 5000 | > 5000
23 | CN[C@H](C(=O)Nc1ccc(-c2cn[nH]c2)cc1)c1cccc(OC)c1 [Example 4, (S)—N-(4-(1H-pyrazol-4-yl)phenyl)-2-(3-methoxyphenyl)-2-(methylamino)acetamide] | 3 | 110 | 108
24 | COc1cccc(C(NCCCN(C)C)C(=O)Nc2ccc(-c3cn[nH]c3)cc2)c1 (stereo not drawn) [Example 38, N-(4-(1H-pyrazol-4-yl)phenyl)-2-((3-(dimethylamino)propyl)amino)-2-(3-methoxyphenyl)acetamide] | 8.7 | 1620 | 338
25 | CNC(C(=O)Nc1ccc(-c2cn[nH]c2)cc1)c1ccnc(OC)c1 (stereo not drawn) [Example 29, N-(4-(1H-pyrazol-4-yl)phenyl)-2-(2-methoxypyridin-4-yl)-2-(methylamino)acetamide] | 14 | 146 | 647
26 | CCNC(C(=O)Nc1ccc(-c2cn[nH]c2)cc1)c1cccc(Cl)c1 (stereo not drawn) [Example 16, N-(4-(1H-pyrazol-4-yl)phenyl)-2-(3-chlorophenyl)-2-(ethylamino)acetamide] | 3.5 | 376 | 292

— patent publication US11479533B2, “Inhibitors of Rho associated coiled-coil containing protein kinase” (KADMON CORPORATION, LLC, priority 2017, dated 2022)
